# Measurements reported in ChEMBL document CHEMBL4330075, “Discovery of Novel Quinoline-Chalcone Derivatives as Potent Antitumor Agents with Microtubule Polymerization Inhibitory Activity” (J Med Chem, 2019).
# Assays:
# K562 [1] = experiment: Cell cycle arrest in human K562 cells assessed as accumulation of cells at G1 phase at 10 nM after 48 hrs by propidium iodide staining-based flow cytometric analysis (reference value: 47.91%); assay type: functional
# K562 [2] = experiment: Induction of apoptosis in human K562 assessed as early apoptotic cells at 10 nM after 48 hrs by Annexin V-APC/propidium iodide staining-based flow cytometric analysis (reference value: 4.44%); assay type: functional
# K562 [3] = experiment: Induction of apoptosis in human K562 assessed as necrotic cells at 20 nM after 48 hrs by Annexin V-APC/propidium iodide staining-based flow cytometric analysis (reference value: 1.92%); assay type: functional
# [4] = Toxicity in ICR mouse assessed as mouse survival at 800 mg/kg, iv for 14 days relative to control; assay type: organism-based; settings: in vivo
# K562 [5] = experiment: Induction of apoptosis in human K562 assessed as early apoptotic cells at 20 nM after 48 hrs by Annexin V-APC/propidium iodide staining-based flow cytometric analysis (reference value: 4.44%); assay type: functional
# K562 [6] = experiment: Induction of apoptosis in human K562 assessed as necrotic cells at 5 nM after 48 hrs by Annexin V-APC/propidium iodide staining-based flow cytometric analysis (reference value: 1.92%); assay type: functional
# HUVEC = experiment: Antiproliferative activity against human HUVEC cells after 24 hrs by MTT assay; assay type: cell-based
# K562 [7] = experiment: Induction of apoptosis in human K562 assessed as late apoptotic cells at 10 nM after 48 hrs by Annexin V-APC/propidium iodide staining-based flow cytometric analysis (reference value: 1.30%); assay type: functional
# K562 [8] = experiment: Cell cycle arrest in human K562 cells assessed as accumulation of cells at G2 phase at 5 nM after 48 hrs by propidium iodide staining-based flow cytometric analysis (reference value: 15.82%); assay type: functional
# K562 [9] = experiment: Induction of apoptosis in human K562 assessed as viable cells at 20 nM after 48 hrs by Annexin V-APC/propidium iodide staining-based flow cytometric analysis (reference value: 92.34%); assay type: functional; settings: K562, 48 h, read-out: Activity
# K562 [10] = experiment: Induction of apoptosis in human K562 assessed as late apoptotic cells at 5 nM after 48 hrs by Annexin V-APC/propidium iodide staining-based flow cytometric analysis (reference value: 1.30%); assay type: functional
# HepG2 = experiment: cells; settings: Homo sapiens, HepG2, 72 h
# K562 [11] = experiment: Antiproliferative activity against human K562 cells after 72 hrs by MTT assay; assay type: functional, cell-based; settings: K562, 72 h
# [12] = Toxicity in iv dosed ICR mouse assessed as mouse survival for 14 days; assay type: organism-based; settings: in vivo
smiles,measurement,setting,value
COc1ccc(/C=C(\C)C(=O)c2cc(C)nc3ccccc23)cc1O,Activity,K562 [1],52.22%
same,Activity,K562 [2],23.15%
same,Activity,K562 [3],4.86%
same,survival at 336 h,[4],30%
same,Activity,K562 [5],36.86%
same,Activity,K562 [6],2.63%
same,IC50,HUVEC,250 nM
same,Activity,K562 [7],11.4%
same,Activity,K562 [8],18.04%
same,viability at 0.02 µM,K562 [9],35%
same,Activity,K562 [10],4.34%
same,IC50,HepG2,15 nM
same,IC50,K562 [11],9 nM
same,LD50 at 336 h,[12],666 mg/kg
